Holding throughout (type): cell-based
The test system of data set [1] is MCF-7^+Topo breast carcinoma cells. Briefly: MTT cell viability assay, MCF-7+Topo breast carcinoma. The note with it: Homo sapiens, MCF7/Topo, read-out: Inhibitory concentration IC50. As for the experimental part: (§1) 518A2 (Department of Radiotherapy, Medical University of Vienna, Vienna, Austria) melanoma, KB-V1^Vbl (ACC-149) cervix carcinoma, MCF-7^Topo (ACC-115) breast carcinoma, HT29 (ACC-299) colon carcinoma were cultivated in Dulbecco’s Modified Eagle Medium (DMEM) supplemented with 10% fetal bovine serum and 1% antibiotic-antimycotic at 37 °C, 5% CO2, and 95% humidity. To keep MCF-7^Topo and KB-V1^Vbl cells resistant, the maximum-tolerated doses of topotecan or vinblastine were added to the cell culture medium 24 h after every passage. The human HL60 leukemia cells were obtained from the German National Resource Center for Biological Material (DSMZ), Braunschweig. Neuroectodermal stem cells NE-4C (ATCC No. CRL-2925), primary mouse astrocytes, rat glioma C6 (ATCC No. CCL-107) and human glioma U87 (ATCC No. HTB-14) were used.
(§2) Non-GBM cells (5 × 10^4 cells/mL, 100 µL/well) were grown in 96-well plates for 24 h. […] After the addition of 12.5 µL of a 0.5% MTT solution in PBS, the cells were incubated for 3 h at 37 °C so that the water-soluble MTT could be converted to formazan crystals. Then, the plates were centrifuged (300× g, 5 min, 4 °C), the medium withdrawn, and the formazan dissolved in 25 µL of DMSO containing 10% sodium dodecylsulfate (SDS) and 0.6% acetic acid for at least 2 h at 37 °C. In the case of the HL60 cells, after 2 h, the precipitate of formazan crystals was redissolved in a 10% solution of SDS in DMSO containing 0.6% acetic acid.

For another data set, the system named is MZ-54 glioblastoma cells. Briefly: MTT cell viability assay, MZ-54 glioblastoma. The note with it: Homo sapiens, read-out: Inhibitory concentration IC50. How it is done:
U251 (formerly known as U-373 MG; ECACC 09063001), Mz54 (CVCL_M406) human glioblastoma cell lines were cultured in DMEM+GlutaMax supplemented with 10% fetal bovine serum and 1% penicillin/streptomycin mixture. The human glioma cell line Mz54 was obtained from the Dept. of Neurosurgery, University Medical Centre, Johannes Gutenberg University Mainz, Germany, where this line was isolated from a recurrent grade IV glioblastoma. U251 and Mz54 cells were used in passages between 10 and 25 after re-authentication and 40 to 55 after culture establishment, respectively. Only mycoplasma-free cell cultures were used.
[…] Afterward, 10 µL of a 5 mg/mL MTT solution in PBS was added to the cells for 3 h at 37 °C. Then, the spheres were centrifuged shortly to collect the cells on the bottom of the plate, and the medium was removed by careful pipetting for both adherently grown and floating sphere GBM cultures. Afterward, formazan was dissolved in a mixture (24:1 v:v) of isopropanol and 1 M HCl using 100 µL for adherent cells by shaking the plates for at least 20 min. The absorbance of formazan (λ = 570 nm), and background (λ = 630 nm) was measured with a microplate reader (Tecan Spark, Tecan Deutschland GmbH, Crailsheim, Germany).
(Formazan colour is commonly taken as a measure of viable cells.)

For the next data set, the system named is 518A2 melanoma cells. Briefly: MTT cell viability assay, 518A2 melanoma. The note with it: Homo sapiens, read-out: Inhibitory concentration IC50. As for the experimental part:
as §1, §2

Data set [2] relates to NCH644^GFP+ glioma stem-like cells. Briefly: Ex vivo tumor growth assay on adult organotypic brain slice cultures. The source says: For further investigation of drug efficacy and selectivity, an ex vivo tumor growth assay employing organotypic brain slice cultures of adult murine brains were used. For this purpose, GFP-expressing NCH644 (NCH644^GFP+) glioma stem-like cells were transplanted onto these slices, and after 1 day, the treatment was started and renewed three times per week, similar to our previous studies. These cultures are suitable ex vivo models, which simulate original brain architecture and the presence of vessels, including angiogenesis and microvascular proliferation as well as specific homing of GBM cells toward those vessels, while requiring much fewer laboratory animals when compared with common in vivo animal drug tests.
Adult organotypic brain slice culture was carried out as described previously. Briefly, the brains from adult C57BL/6 J (Envigo, Horst, The Netherlands) were dissected, and dura mater was removed after the mice were euthanized. Subsequently, mouse brains were placed in warm (35–40 °C) 2% low-melting agarose (Carl Roth, Karlsruhe, Germany) and cut on a Vibratome VT1000 (Leica, Wetzlar, Germany) in 150 µm thick sections. These sections were placed on Milli-cell culture inserts (Merck KGaA, Darmstadt, Germany) and cultured in 6-well plates using FCS-free medium consisting of DMEM/F12 supplied with 1× B27 and 1× N2 supplement and 100 U/mL penicillin and 100 µg/mL streptomycin (all from Gibco, Darmstadt, Germany). One day later, multiple spheres were placed on the mouse brain slices. Adequate spheres were prepared by seeding 275.000 NCH644^GFP+ cells in a total volume of 5 mL in a T25 flask. One day after sphere transplantation, pictures were taken (day 0), and the treatment was started, which was refreshed 3 times per week. Tumor growth was evaluated using FIJI, after which pictures were taken regularly with a Nikon SMZ25 stereomicroscope equipped with a P2-SHR Plan Apo 2 × objective operated by NIS elements software. As the tumor size was normalized to the size on day 0, growth curves were created.

Setting [3] is: 5 µM, treatment renewed three times per week.

Molecules are shown by their SMILES. Like-named read-outs stand apart in the source and are kept apart here.

In the case of `CC1=C(/C=C/C(C)=C/C=C/C(C)=C/C(=O)O[C@@H]2C3=C(C)C4(CC4)[C@@](C)(O)C(=O)C3=CC2(C)C)C(C)(C)CCC1` [Compound 2, illudin M retinoate], the IC50 worked out at 2500 ± 600 nM in data set [1] (24 h exposure); 80 ± 10 nM in data set [1] (48 h exposure); 5480 ± 1200 nM in the data set with MZ-54 glioblastoma cells (MZ-54, 48 h exposure); 5000 ± 300 nM in the data set on 518A2 melanoma cells (518A2, 24 h exposure); 4000 ± 700 nM in the data set with 518A2 melanoma cells (518A2, 48 h exposure). Further, the “antitumor activity (tumor growth normalized to day 0)” value in data set [2] (setting [3]) is “showed antitumor activity”; in data set [2] (0.1 and 0.5 µM) it was “significantly reduced”. For the same compound, the “toxicity in the tumor-free regions of the brain slices” value in data set [2] (organotypic brain slices) was “no signs of toxicity”.

As for `CC1=C2C(=CC(C)(C)[C@@H]2O)C(=O)[C@](C)(O)C12CC2` [Compound 1, illudin M], the IC50 in data set [1] (24 h exposure) was determined as 350 ± 130 nM; in data set [1] (48 h exposure), 50 ± 10 nM; with MZ-54 glioblastoma cells (MZ-54, 24 h exposure), 550 ± 160 nM; with MZ-54 glioblastoma cells (MZ-54, 48 h exposure), 60 ± 10 nM; in the data set with 518A2 melanoma cells (518A2, 24 h exposure) it was 40 ± 10 nM; in the data set on 518A2 melanoma cells (518A2, 48 h exposure) it was 20 ± 10 nM. Moreover, the “antitumor activity (tumor growth normalized to day 0)” value in data set [2] (setting [3]) is “showed antitumor activity”.

(Values after publication PMC9408991, “Antitumor Effects of a New Retinoate of the Fungal Cytotoxin Illudin M in Brain Tumor Models” (International Journal of Molecular Sciences, 2022).)
